Each compound was assayed against T1, human Prostaglandin D Synthase (GST2) (Homo sapiens, UniProt O60760) (assay: Homogeneous biochemical assay of human Prostaglandin D Synthase (GST2) based on its glutathion-S-transferase activity (GSH conjugation to monochlorobimane, fluorescence)). Details: not given.
T1 construct: the open reading frame of human Prostaglandin D Synthase was amplified from cDNA; made in house; host or cells: E. coli TOP10F'
Source text: Homogeneous, Biochemical Assay Monitoring the Activity of Human Prostaglandin D Synthase Based on the Glutathion-S-Transferase Activity of the Enzyme
Prostaglandin D2 synthesis by Prostaglandin D synthase (GST2) requires transfer of Glutathion (GSH) to the substrate, Prostaglandin H2. […] Since the Prostaglandin D2 synthesis is absolutely dependent on the GST activity of the enzyme, assays monitoring the GST activity should allow to identify specific inhibitors of Prostaglandin D2 synthetic activity. The assay principle used is based on enzymatic conjugation of GSH to Monochlorobimane (MCB), that becomes fluorescent upon this chemical modification. Therefore, the enzymatic reaction can be monitored by total fluorescence measurement.
In brief, the open reading frame of human Prostaglandin D Synthase was amplified from cDNA using the primer pair:
This construct allows prokaryotic expression of Prostaglandin D Synthase as fusion protein with a N-terminal hexa-histidine tag, referred to as NHis-Prostaglandin D Synthase.
Expression of NHis-Prostaglandin D Synthase was in E. coli TOP10F′ (Invitrogen, Germany, cat. no. C3030-03). […] When the culture had reached a density corresponding to an A600 of 0.6, an equal volume of room temperature LB/ampicillin was added. […] Cells harvested by centrifugation were resuspended in 50 mM tris(hydroxymethyl)aminomethane hydrochloride pH 7.5 (Tris/HCl, Sigma, cat. no. T5941).
Removal of unbound material was with 100 ml lysis buffer. Elution was with 50 ml of 50 mM Tris/HCl pH 7.5, 300 mM imidazol (Sigma, Germany, cat. no. I2399)/HCl pH 7.5). […] Aliquots were shock frozen in liquid nitrogen and stored at −80° C.
All assay components were diluted in reaction buffer, 50 mM MES/KOH (pH 6.1), 0.7 mM GSH (Sigma, G4251), 2 mM MgCl2 (Sigma, M2670), 0.05% Pluronic F127 (Sigma, P2443), and stored on ice prior to use. Compounds were diluted in 90% DMSO yielding final assay concentrations from the picomolar to three digit micromolar range.
Total fluorescent measurement was carried out with excitation and emission wavelength of 390 and 460 nm, respectively (BMG Fluostar Optima).

T1 sequence (O60760 whole entry): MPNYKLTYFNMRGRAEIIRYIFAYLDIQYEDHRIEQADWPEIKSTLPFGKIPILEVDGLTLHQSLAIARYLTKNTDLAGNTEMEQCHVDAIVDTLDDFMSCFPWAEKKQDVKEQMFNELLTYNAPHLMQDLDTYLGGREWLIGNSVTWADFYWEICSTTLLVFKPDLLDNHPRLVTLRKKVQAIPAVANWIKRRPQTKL

| SMILES | IC50 |
| --- | --- |
| CCN(CC)C(=O)c1ccc(NC(=O)N2CCN(C(=O)c3cccc(F)c3)CC2)cc1 [Compound 102, 4-(3-Fluoro-benzoyl)-piperazine-1-carboxylic acid (4-diethylcarbamoyl-phenyl)-amide] | 0.101 to 1 µM |

Same assay, conditions: given beside the compound name in Examples 1 to 167; read-out: Potency Range (GST2 IC50)

| SMILES | IC50 |
| --- | --- |
| CC(=O)Nc1ccc2nc(NC(=O)N3CCN(C(=O)c4cccc(F)c4)CC3)sc2c1 [Compound 84, 4-(3-Fluoro-benzoyl)-piperazine-1-carboxylic acid (6-acetylamino-benzothiazol-2-yl)-amide] | 0.011 to 0.1 µM |
| O=C(Nc1cccc(-c2ccncc2)c1)N1CCN(C(=O)c2cccc(F)c2)CC1 [Compound 86, 4-(3-Fluoro-benzoyl)-piperazine-1-carboxylic acid (3-pyridin-4-yl-phenyl)-amide] | 0.101 to 1 µM |
| O=C(Nc1cccc(-c2cccnc2)c1)N1CCN(C(=O)c2cccc(F)c2)CC1 [Compound 87, 4-(3-Fluoro-benzoyl)-piperazine-1-carboxylic acid (3-pyridin-3-yl-phenyl)-amide] | 0.101 to 1 µM |
| O=C(Nc1ccc(Br)c(F)c1)N1CCN(C(=O)c2cccc(F)c2)CC1 [Compound 88, 4-(3-Fluoro-benzoyl)-piperazine-1-carboxylic acid (4-bromo-3-fluoro-phenyl)-amide] | 0.011 to 0.1 µM |
| Cc1nc(-c2ccc(NC(=O)N3CCN(C(=O)c4cccc(F)c4)CC3)cc2)cs1 [Compound 90, 4-(3-Fluoro-benzoyl)-piperazine-1-carboxylic acid [4-(2-methyl-thiazol-4-yl)-phenyl]-amide] | 0.011 to 0.1 µM |
| COC(=O)c1cc(NC(=O)N2CCN(C(=O)c3cccc(F)c3)CC2)ccc1F [Compound 94, 2-Fluoro-5-{[4-(3-fluoro-benzoyl)-piperazine-1-carbonyl]-amino}-benzoic acid methyl ester] | 0.101 to 1 µM |
| COC(=O)c1ccc(NC(=O)N2CCN(C(=O)c3cccc(F)c3)CC2)cc1F [Compound 95, 2-Fluoro-4-{[4-(3-fluoro-benzoyl)-piperazine-1-carbonyl]-amino}-benzoic acid methyl ester] | 0.101 to 1 µM |
| O=C(O)c1ccc(NC(=O)N2CCN(C(=O)c3cccc(F)c3)CC2)cc1F [Compound 96, 2-Fluoro-4-{[4-(3-fluoro-benzoyl)-piperazine-1-carbonyl]-amino}-benzoic acid] | 0.101 to 1 µM |
| O=C(Nc1ccc(C(=O)N2CCOCC2)c(F)c1)N1CCN(C(=O)c2cccc(F)c2)CC1 [Compound 97, 4-(3-Fluoro-benzoyl)-piperazine-1-carboxylic acid [3-fluoro-4-(morpholine-4-carbonyl)-phenyl]-amide] | 0.101 to 1 µM |
| O=C(Nc1ccc(F)nc1)c1ccc(NC(=O)N2CCN(C(=O)c3cccc(F)c3)CC2)cc1F [Compound 99, 4-(3-Fluoro-benzoyl)-piperazine-1-carboxylic acid [3-fluoro-4-(6-fluoro-pyridin-3-ylcarbamoyl)-phenyl]-amide] | 0.101 to 1 µM |
| O=C(Nc1ccc(F)nc1)c1ccc(NC(=O)N2CCN(C(=O)c3cccc(F)c3)CC2)cc1 [Compound 103, 4-(3-Fluoro-benzoyl)-piperazine-1-carboxylic acid [4-(6-fluoro-pyridin-3-ylcarbamoyl)-phenyl]-amide] | 0.101 to 1 µM |
| NC(=O)c1ccc(NC(=O)N2CCN(C(=O)c3cccc(F)c3)CC2)cc1F [Compound 104, 4-(3-Fluoro-benzoyl)-piperazine-1-carboxylic acid (4-carbamoyl-3-fluoro-phenyl)-amide] | 0.101 to 1 µM |
| Nc1cccc(NC(=O)N2CCN(C(=O)c3cccc(F)c3)CC2)c1 [Compound 106, 4-(3-Fluoro-benzoyl)-piperazine-1-carboxylic acid (3-amino-phenyl)-amide] | 0.101 to 1 µM |
| O=C(Nc1cccc(NC(=O)N2CCN(C(=O)c3cccc(F)c3)CC2)c1)c1cccc[n+]1[O-] [Compound 108, 4-(3-Fluoro-benzoyl)-piperazine-1-carboxylic acid {3-[(1-oxy-pyridine-2-carbonyl)-amino]-phenyl}-amide] | 0.101 to 1 µM |
| O=C(Nc1cccc(NC(=O)N2CCN(C(=O)c3cccc(F)c3)CC2)c1)c1cc[n+]([O-])cc1 [Compound 110, 4-(3-Fluoro-benzoyl)-piperazine-1-carboxylic acid {3-[(1-oxy-pyridine-4-carbonyl)-amino]-phenyl}-amide] | 0.101 to 1 µM |
| O=C(Nc1cccc(NC(=O)N2CCN(C(=O)c3cccc(F)c3)CC2)c1)c1ccc(F)nc1 [Compound 111, 4-(3-Fluoro-benzoyl)-piperazine-1-carboxylic acid {3-[(6-fluoro-pyridine-3-carbonyl)-amino]-phenyl}-amide] | 0.101 to 1 µM |
| Nc1ccc(NC(=O)N2CCN(C(=O)c3cccc(F)c3)CC2)cc1 [Compound 112, 4-(3-Fluoro-benzoyl)-piperazine-1-carboxylic acid (4-amino-phenyl)-amide] | 0.101 to 1 µM |

Next, values leading:

| IC50 | SMILES |
| --- | --- |
| 0.101 to 1 µM | N#Cc1cc(NC(=O)N2CCN(C(=O)c3cccc(F)c3)CC2)ccc1F [Compound 85, 4-(3-Fluoro-benzoyl)-piperazine-1-carboxylic acid (3-cyano-4-fluoro-phenyl)-amide] |
| 0.011 to 0.1 µM | O=C(Nc1ccc(-c2cc[nH]n2)cc1)N1CCN(C(=O)c2cccc(F)c2)CC1 [Compound 89, 4-(3-Fluoro-benzoyl)-piperazine-1-carboxylic acid [4-(1H-pyrazol-3-yl)-phenyl]-amide] |
| 0.011 to 0.1 µM | O=C(Nc1ccc(S(=O)(=O)N2CCOCC2)cc1)N1CCN(C(=O)c2cccc(F)c2)CC1 [Compound 91, 4-(3-Fluoro-benzoyl)-piperazine-1-carboxylic acid [4-(morpholine-4-sulfonyl)-phenyl]-amide] |
| 0.101 to 1 µM | O=C(Nc1cccc(S(=O)(=O)N2CCOCC2)c1)N1CCN(C(=O)c2cccc(F)c2)CC1 [Compound 92, 4-(3-Fluoro-benzoyl)-piperazine-1-carboxylic acid [3-(morpholine-4-sulfonyl)-phenyl]-amide] |
| 0.101 to 1 µM | CNC(=O)c1cccc(NC(=O)N2CCN(C(=O)c3cccc(F)c3)CC2)c1 [Compound 93, 4-(3-Fluoro-benzoyl)-piperazine-1-carboxylic acid (3-methylcarbamoyl-phenyl)-amide] |
| 0.101 to 1 µM | O=C(O)c1ccc(NC(=O)N2CCN(C(=O)c3cccc(F)c3)CC2)cc1 [Compound 100, 4-{[4-(3-Fluoro-benzoyl)-piperazine-1-carbonyl]-amino}-benzoic acid] |
| 0.011 to 0.1 µM | O=C(Nc1cccc(NC(=O)N2CCN(C(=O)c3cccc(F)c3)CC2)c1)c1ccccn1 [Compound 107, 4-(3-Fluoro-benzoyl)-piperazine-1-carboxylic acid {3-[(pyridine-2-carbonyl)-amino]-phenyl}-amide] |
| 0.101 to 1 µM | Nc1ccc(NC(=O)N2CCN(C(=O)c3cc(F)ccc3F)CC2)cc1 [Compound 113, 4-(2,5-Difluoro-benzoyl)-piperazine-1-carboxylic acid (4-amino-phenyl)-amide] |
| 0.011 to 0.1 µM | O=C(Nc1ccc(NC(=O)N2CCN(C(=O)c3cccc(F)c3)CC2)cc1)c1ccccn1 [Compound 114, 4-(3-Fluoro-benzoyl)-piperazine-1-carboxylic acid {4-[(pyridine-2-carbonyl)-amino]-phenyl}-amide] |
| 0.011 to 0.1 µM | O=C(Nc1ccc(NC(=O)N2CCN(C(=O)c3cccc(F)c3)CC2)cc1)c1cccc[n+]1[O-] [Compound 115, 4-(3-Fluoro-benzoyl)-piperazine-1-carboxylic acid {4-[(1-oxy-pyridine-2-carbonyl)-amino]-phenyl}-amide] |

— patent US20100234377A1 (priority 2007, published 2010)
